Literature values as cited in patent US12310973B2, “Administration and dosage of diaminophenothiazines” (WisTa Laboratories Ltd., priority 2016, dated 2025).

Legend:
[1] = system: TDP-43 aggregates in SH-SY5Y cells; details: 0.05 μM MT; cited from earlier work
[2] = system: huntingtin derivative containing a polyglutamine stretch of 102 residues; details: tested at 0, 10 and 100 μM; zebrafish; cited from earlier work

Which “Reduction in number of TDP-43 aggregates” value [1] does the source give for methylthioninium [MT] here?
Its value is 50%.

What about the “Formation of aggregates of huntingtin derivative (polyglutamine stretch of 102 residues)” value [2] of the same substance?
Its value is “prevented the formation of such aggregates in zebrafish in a dose dependent manner”.
